Measurements taken from ChEMBL document CHEMBL1201862, “PubChem BioAssay data set” (2004).
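Five compound concentrations were applied to cells in 96-well plates for 48 hours; endpoints were derived by simple linear interpolation of the resulting dose-response curve. Here, GI50 denotes the concentration required for 50% inhibition of growth.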 Activity calls are given as the source filed them. No stated cut-off is given here; in the data, active = GI50 up to about 1.1 µM and inactive = higher. Non-standard residues stand in square brackets, D forms with d. Residues, ends and D or L forms follow the SMILES beside them. *: point of attachment. Cbz = O=C(OCc1ccccc1)*; Boc = CC(C)(C)OC(=O)*; Aib = CC(C)(N)C(=O)O; OBn = c1ccc(CO*)cc1; OtBu = CC(C)(C)O*; βAla = NCCC(=O)O

Key:
Assay in all cases: inhibition of tumour cell growth, NCI panel, 48 h
[1] = test system: SF-268
[2] = test system: DU-145
[3] = test system: PC-3
[4] = test system: COLO 205
[5] = test system: LOX IMVI
[6] = test system: SK-MEL-2
[7] = test system: RPMI-8226
[8] = test system: HOP-92
[9] = test system: U-251
[10] = test system: SR
[11] = test system: IGROV-1
[12] = test system: SN12C
[13] = test system: NCI/ADR-RES
[14] = test system: HCT-15
[15] = test system: TK-10
[16] = test system: SNB-75
[17] = test system: 786-0
[18] = test system: KM12
[19] = test system: SK-OV-3

Row | SMILES | GI50 [1] | GI50 [2] | GI50 [3] | GI50 [4] | GI50 [5] | GI50 [6] | GI50 [7] | GI50 [8] | GI50 [9] | GI50 [10] | GI50 [11] | GI50 [12] | GI50 [13] | GI50 [14] [µM] | GI50 [15] | GI50 [16] | GI50 [17] | GI50 [18] | GI50 [19]
1 | CS(=O)(=O)OCC1CN(S(C)(=O)=O)c2cc(O)ccc21 (stereo not given) | 0.524 µM (active) | 2.8 µM (inactive) | 2.09 µM (inactive) | 2.3 µM (inactive) | 3.17 µM (inactive) | 2.59 µM (inactive) | 1.87 µM (inactive) | 3.09 µM (inactive) | 2.36 µM (inactive) | 2.05 µM (inactive) | 3.85 µM (inactive) | 2.92 µM (inactive) | 3.09 µM (inactive) | 3.1 | 2.37 µM (inactive) | 2.37 µM (inactive) | 3.67 µM (inactive) | 2.96 µM (inactive) | –
2 | COc1ccc(-c2c(C#N)c(O)n(C3OC(CO)C(O)C(O)C3O)c(=S)c2C#N)cc1 (stereo not given) | > 100 µM (inactive) | > 100 µM (inactive) | > 100 µM (inactive) | – | > 100 µM (inactive) | > 100 µM (inactive) | > 100 µM (inactive) | – | – | > 100 µM (inactive) | > 100 µM (inactive) | > 100 µM (inactive) | > 100 µM (inactive) | > 100 | > 100 µM (inactive) | > 100 µM (inactive) | > 100 µM (inactive) | > 100 µM (inactive) | > 100 µM (inactive)
3 | O=C(CC(C(=O)c1cccs1)c1ccc2c(c1)OCO2)c1ccccc1 (stereo not given) | > 100 µM (inactive) | > 100 µM (inactive) | > 100 µM (inactive) | > 100 µM (inactive) | > 100 µM (inactive) | > 100 µM (inactive) | > 100 µM (inactive) | > 100 µM (inactive) | > 100 µM (inactive) | 70.1 µM (inactive) | > 100 µM (inactive) | > 100 µM (inactive) | > 100 µM (inactive) | > 100 | 19.6 µM (inactive) | > 100 µM (inactive) | > 100 µM (inactive) | > 100 µM (inactive) | > 100 µM (inactive)
4 | COc1ccc(C(=O)/C=C/c2cccnc2)cc1OC | 7.55 µM (inactive) | 14.6 µM (inactive) | 14.7 µM (inactive) | 10.9 µM (inactive) | 1.58 µM (inactive) | 13.2 µM (inactive) | 2.6 µM (inactive) | 13 µM (inactive) | 5.09 µM (inactive) | 1.54 µM (inactive) | 9.64 µM (inactive) | 6.25 µM (inactive) | 14.5 µM (inactive) | 11.4 | 15.7 µM (inactive) | 11.8 µM (inactive) | 4.51 µM (inactive) | – | 15.3 µM (inactive)
5 | C[C@]12CC/C(=N\O)C=C1CC[C@@H]1[C@@H]2CC[C@]2(C)C(=N/O)/C(=C/c3ccc([N+](=O)[O-])cc3)C[C@@H]12 | 3.16 µM (inactive) | 5.35 µM (inactive) | 4.8 µM (inactive) | 4.9 µM (inactive) | 5.11 µM (inactive) | 3.91 µM (inactive) | 1.87 µM (inactive) | 3.3 µM (inactive) | – | 2.79 µM (inactive) | 2.86 µM (inactive) | 4.27 µM (inactive) | 5.13 µM (inactive) | 3.44 | 6.41 µM (inactive) | 6 µM (inactive) | 6.65 µM (inactive) | 4.04 µM (inactive) | 15.5 µM (inactive)
6 | Cc1cc(-c2nc3ccccc3s2)ccc1NC(=O)[C@@H](N)CCCCN | 6.07 µM (inactive) | 12.5 µM (inactive) | 14.3 µM (inactive) | 12.4 µM (inactive) | 2.03 µM (inactive) | 13.4 µM (inactive) | – | 16.1 µM (inactive) | 4.59 µM (inactive) | 3.24 µM (inactive) | 1.69 µM (inactive) | 16.8 µM (inactive) | 15.8 µM (inactive) | 9.27 | 0.993 µM (active) | 3.68 µM (inactive) | 5.96 µM (inactive) | 2.82 µM (inactive) | 13.5 µM (inactive)
7 | Cc1ccc(NC(=O)/C(=N\NC(N)=O)c2c(O)c3ccccc3[nH]c2=O)cc1 | > 100 µM (inactive) | > 100 µM (inactive) | > 100 µM (inactive) | > 100 µM (inactive) | > 100 µM (inactive) | > 100 µM (inactive) | > 100 µM (inactive) | > 100 µM (inactive) | > 100 µM (inactive) | > 100 µM (inactive) | – | > 100 µM (inactive) | > 100 µM (inactive) | > 100 | – | 99.8 µM (inactive) | > 100 µM (inactive) | > 100 µM (inactive) | > 100 µM (inactive)
8 | CC1=C(C)C2(C#N)C(=O)N3C(=NC(c4ccco4)NC3c3ccco3)C2(C#N)C(c2ccco2)N1 (stereo not given) | > 100 µM (inactive) | > 100 µM (inactive) | > 100 µM (inactive) | > 100 µM (inactive) | > 100 µM (inactive) | > 100 µM (inactive) | > 100 µM (inactive) | > 100 µM (inactive) | > 100 µM (inactive) | > 100 µM (inactive) | > 100 µM (inactive) | > 100 µM (inactive) | > 100 µM (inactive) | > 100 | > 100 µM (inactive) | – | > 100 µM (inactive) | > 100 µM (inactive) | > 100 µM (inactive)
9 | CCOC(=O)N/N=C(/N)c1cccc(Br)c1 | > 100 µM (inactive) | > 100 µM (inactive) | > 100 µM (inactive) | > 100 µM (inactive) | > 100 µM (inactive) | > 100 µM (inactive) | – | – | – | > 100 µM (inactive) | > 100 µM (inactive) | > 100 µM (inactive) | > 100 µM (inactive) | > 100 | > 100 µM (inactive) | > 100 µM (inactive) | > 100 µM (inactive) | > 100 µM (inactive) | > 100 µM (inactive)
10 | COC(=O)C1(C(=O)OC)N=C(C)OC1c1ccccc1O (stereo not given) | – | > 100 µM (inactive) | > 100 µM (inactive) | > 100 µM (inactive) | > 100 µM (inactive) | > 100 µM (inactive) | > 100 µM (inactive) | > 100 µM (inactive) | > 100 µM (inactive) | > 100 µM (inactive) | > 100 µM (inactive) | > 100 µM (inactive) | > 100 µM (inactive) | > 100 | > 100 µM (inactive) | > 100 µM (inactive) | > 100 µM (inactive) | > 100 µM (inactive) | > 100 µM (inactive)
11 | Nc1ncc(/C=N/O)c(NCC2(CO)CC(CCc3ccccc3)C2)n1 (stereo not given) | 23.9 µM (inactive) | 5.41 µM (inactive) | 13.9 µM (inactive) | 10.8 µM (inactive) | 2.39 µM (inactive) | 16.1 µM (inactive) | 5.73 µM (inactive) | 12.4 µM (inactive) | 12 µM (inactive) | 4.36 µM (inactive) | 6.75 µM (inactive) | 17 µM (inactive) | 5.82 µM (inactive) | 13.1 | > 10 µM (inactive) | 14.5 µM (inactive) | 15.2 µM (inactive) | 14.3 µM (inactive) | –
12 | C=C(C)C(=O)OC1C[C@H](COC(C)=O)C2CC=C(CO)C2C2OC(=O)C(=C)[C@H]12 (stereo not given in full) | 23.6 µM (inactive) | > 100 µM (inactive) | > 100 µM (inactive) | 16.4 µM (inactive) | 26.7 µM (inactive) | 40.3 µM (inactive) | 12.4 µM (inactive) | – | > 100 µM (inactive) | 23.2 µM (inactive) | > 100 µM (inactive) | – | 45.4 µM (inactive) | 24.8 | 74.6 µM (inactive) | 69.2 µM (inactive) | 27.6 µM (inactive) | > 100 µM (inactive) | > 100 µM (inactive)
13 | Cc1ccc([N+](=O)[O-])c2c(NCCC[N+](C)(C)[O-])ccnc12 | > 100 µM (inactive) | 57.8 µM (inactive) | 50.8 µM (inactive) | 34 µM (inactive) | 49.5 µM (inactive) | 52.6 µM (inactive) | 31 µM (inactive) | 50.9 µM (inactive) | 83.6 µM (inactive) | 48.5 µM (inactive) | 20.6 µM (inactive) | > 100 µM (inactive) | > 100 µM (inactive) | > 10 | > 100 µM (inactive) | 55.7 µM (inactive) | > 100 µM (inactive) | 40.1 µM (inactive) | 52 µM (inactive)
14 | COc1cc(-c2oc3c(OC)cc(OC)c(O)c3c(=O)c2OC)cc(OC)c1OC | 6.95 µM (inactive) | 32.7 µM (inactive) | 9.57 µM (inactive) | > 100 µM (inactive) | 3.24 µM (inactive) | – | > 100 µM (inactive) | 15.6 µM (inactive) | 4.65 µM (inactive) | > 100 µM (inactive) | 85.5 µM (inactive) | > 100 µM (inactive) | 5.46 µM (inactive) | – | > 100 µM (inactive) | 1.73 µM (inactive) | 4.02 µM (inactive) | > 100 µM (inactive) | 3.29 µM (inactive)
15 | CC(C)(C)OC(=O)CC(NC(=O)OC(C)(C)C)C(=O)NC(CCCCNC(=O)OCc1ccccc1)C(=O)NC(C)(C)C(=O)NCCC(=O)OCc1ccccc1 (stereo not given) (Boc-D(OtBu)K(Cbz)[Aib][βAla]-OBn; configuration not given here) | > 100 µM (inactive) | > 100 µM (inactive) | > 100 µM (inactive) | > 100 µM (inactive) | > 100 µM (inactive) | – | > 100 µM (inactive) | > 100 µM (inactive) | > 100 µM (inactive) | > 100 µM (inactive) | > 100 µM (inactive) | > 100 µM (inactive) | > 100 µM (inactive) | > 100 | > 100 µM (inactive) | > 100 µM (inactive) | > 100 µM (inactive) | > 100 µM (inactive) | > 100 µM (inactive)
